Reference: patent publication US12528790B2, “Amide derivative having antiviral activity” (Shionogi & Co., Ltd., priority 2020, dated 2026)
Where two headings read alike, the source gives them in different places.

Columns and labels:
[1] = tested on: RSV B (Wash/18537 strain); assay: In vitro CPE (CytoPathic Effect) inhibition effect evaluation test, RSV type B; type: cell-based; conditions: human respiratory syncytial virus
Outline: (§1)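 HEp-2 cells (2.4×10^5 cells/mL, 2% FBS E-MEM) were infected with RSV alongside 3-fold compound dilutions and incubated at 37 °C, 4 days for A2 and 5 days for B Wash/18537. Viable cells quantified by CellTiter-Glo 2.0 luminescence; EC50 by nonlinear regression as 50% CPE inhibition.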

RSV A2 strain = assay: In vitro CPE (CytoPathic Effect) inhibition effect evaluation test, RSV type A; type: cell-based; conditions: human respiratory syncytial virus
Outline: as §1

[2] = inhibitory effect against RSV type B, CPE inhibition, read-out: EC50
[3] = inhibitory effect against RSV type A (RSV A2 strain), HEp-2 cells, CPE inhibition, read-out: EC50
[4] = HEp-2, 120 h, HEp-2 cells, RSV B (Wash/18537 strain), 5 days, CellTiter-Glo, read-out: EC50, inhibitory effect against RSV type B (CPE inhibition)
[5] = HEp-2, 96 h, read-out: EC50, inhibitory effect against RSV type A (CPE inhibition)

Row | Structure (SMILES) | EC50 [1, 2] | EC50 (RSV A2 strain; [3]) | EC50 [1, 4] | EC50 (RSV A2 strain; [5])
1 | CC(F)(F)c1nc(N2CC3(CCCCC3)c3cc(OC4CCN(c5ncc(F)cn5)CC4)ncc32)ncc1C(=O)NC1(C(=O)O)C2CC3CC(C2)CC1C3 (stereo not shown) [Compound I-557] | < 10 nM | < 10 nM |  | 
2 | O=C(NC1(C(=O)O)C2CC3CC(C2)CC1C3)c1cnc(N2CC3(CCCCC3)c3cc(OC4CCN(c5ncc(F)cn5)CC4)ncc32)nc1C(F)(F)F (stereo not shown) [Compound I-558] | < 10 nM | < 10 nM |  | 
3 | CC(F)(F)c1nc(N2CC3(CCOCC3)c3cc(OC4CCN(CC(F)F)CC4)ccc32)ncc1C(=O)NC1(C(=O)O)C2CC3CC(C2)CC1C3 (stereo not shown) [Compound I-559] | < 10 nM | < 10 nM |  | 
4 | CC(F)(F)c1nc(N2CC3(CCOCC3)c3cc(O[C@@H]4CCN(c5ncc(F)cn5)C4)ccc32)ncc1C(=O)NC1(C(=O)O)C2CC3CC(C2)CC1C3 (stereo partly shown) [Compound I-560] | < 10 nM | < 10 nM |  | 
5 | CC(F)(F)c1nc(N2CC3(CCOCC3)c3cc(O[C@@H]4CCN(CC(F)(F)F)C4)ccc32)ncc1C(=O)NC1(C(=O)O)C2CC3CC(C2)CC1C3 (stereo partly shown) [Compound I-561] | < 10 nM | < 10 nM |  | 
6 | CC(F)(F)c1nc(N2CC3(CCOCC3)c3cc(O[C@H]4CC[C@H](c5ncc(F)cn5)CC4)ccc32)ncc1C(=O)NC1(C(=O)O)C2CC3CC(C2)CC1C3 (stereo partly shown) [Compound I-562] | < 10 nM | < 10 nM |  | 
7 | CC(F)(F)c1nc(N2CC3(CCCCC3)c3cc(O[C@H]4CC[C@H](n5ccnn5)CC4)ccc32)ncc1C(=O)NC1(C(=O)O)C2CC3CC(C2)CC1C3 (stereo partly shown) [Compound I-563] | < 10 nM | < 10 nM |  | 
8 | CC(F)(F)c1nc(N2CC3(CCOCC3)c3cc(OC4CCN(C5CSC5)CC4)ccc32)ncc1C(=O)NC1(C(=O)O)C2CC3CC(C2)CC1C3 (stereo not shown) [Compound I-564] | < 10 nM | < 10 nM |  | 
9 | CC(F)(F)c1nc(N2CC3(CCCC3)c3cc(OC4CCN(CC(F)(F)F)CC4)ccc32)ncc1C(=O)NC1(C(=O)O)C2CC3CC(C2)CC1C3 (stereo not shown) [Compound I-565] | < 10 nM | < 10 nM |  | 
10 | O=C(NC1(C(=O)O)C2CC3CC(C2)CC1C3)c1cnc(N2CC3(CCCC3)c3cc(O[C@@H]4CCN(CC(F)(F)F)C4)ccc32)nc1C(F)(F)F (stereo partly shown) [Compound I-566] | < 10 nM | < 10 nM |  | 
11 | COC[C@H](C)n1cc(-c2ncc(C(=O)NC3(C(=O)O)C4CC5CC(C4)CC3C5)c(C(C)(F)F)n2)c2ccc(O[C@H]3CC[C@H](N4CC(F)(F)C4)CC3)cc21 (stereo partly shown) [Compound I-567] | < 10 nM | < 10 nM |  | 
12 | COC[C@@H](C)n1cc(-c2ncc(C(=O)NC3(C(=O)O)C4CC5CC(C4)CC3C5)c(C(C)(F)F)n2)c2ccc(O[C@H]3CC[C@H](N4CC(F)(F)C4)CC3)cc21 (stereo partly shown) [Compound I-569] | < 10 nM | < 10 nM |  | 
13 | CCC(CC)n1cc(-c2ncc(C(=O)NC3(C(=O)O)C4CC5CC(C4)CC3C5)c(C(C)(F)F)n2)c2ccc(O[C@H]3CC[C@H](N4CC(F)(F)C4)CC3)cc21 (stereo partly shown) [Compound I-570] |  |  | 2.1 nM | 0.7 nM
14 | CC(F)(F)c1nc(-c2cn(C3CCOCC3)c3cc(O[C@H]4CC[C@H](N5CC(F)(F)C5)CC4)ccc23)ncc1C(=O)NC1(C(=O)O)C2CC3CC(C2)CC1C3 (stereo partly shown) [Compound I-572] | < 10 nM | < 10 nM |  | 
15 | O=C(NC1(C(=O)O)C2CC3CC(C2)CC1C3)c1cnc(-c2cn(C3CCC(F)(F)CC3)c3cc(-n4ncc5c4CCN(CC(F)(F)F)C5)ccc23)nc1C(F)(F)F (stereo not shown) [Compound I-573] | < 10 nM | < 10 nM |  | 
16 | CCC(CC)n1cc(-c2ccc(C(=O)NC3(C(=O)O)C4CC5CC(C4)CC3C5)c(C(F)(F)F)n2)c2ccc(O[C@H]3CC[C@H](N4CC(F)(F)C4)CC3)cc21 (stereo partly shown) [Compound I-575] | < 10 nM | < 10 nM |  | 
17 | COC[C@@H](C)n1cc(-c2ncc(C(=O)NC3(C(=O)O)C4CC5CC(C4)CC3C5)c(C(F)(F)F)n2)c2ccc(OC3CCN(CC(C)(F)F)CC3)cc21 (stereo partly shown) [Compound I-576] | < 10 nM | < 10 nM |  | 
18 | COC[C@H](C)n1cc(-c2ccc(C(=O)NC3(C(=O)O)C4CC5CC(C4)CC3C5)c(C(F)(F)F)n2)c2ccc(O[C@H]3CC[C@H](N4CC(F)(F)C4)CC3)cc21 (stereo partly shown) [Compound I-577] | < 10 nM | < 10 nM |  | 
19 | CC(F)(F)CN1CCC(Oc2ccc3c(-c4ncc(C(=O)NC5(C(=O)O)C6CC7CC(C6)CC5C7)c(C(F)(F)F)n4)cn(C4CCOCC4)c3c2)CC1 (stereo not shown) [Compound I-578] | < 10 nM | < 10 nM |  | 
20 | CC(F)(F)c1nc(-c2cn(C3CCC4(CC3)COC4)c3cc(O[C@H]4CC[C@H](N5CC(F)(F)C5)CC4)ccc23)ncc1C(=O)NC1(C(=O)O)C2CC3CC(C2)CC1C3 (stereo partly shown) [Compound I-580] | < 10 nM | < 10 nM |  | 
21 | COC[C@@H](C)n1cc(-c2ccc(C(=O)NC3(C(=O)O)C4CC5CC(C4)CC3C5)c(C(F)(F)F)n2)c2ccc(O[C@H]3CC[C@H](N4CC(F)(F)C4)CC3)cc21 (stereo partly shown) [Compound I-581] | < 10 nM | < 10 nM |  | 

Row | Structure (SMILES) | EC50 [1, 2] | EC50 (RSV A2 strain; [3]) | EC50 [1, 4] | EC50 (RSV A2 strain; [5])
22 | O=C(NC1(C(=O)O)C2CC3CC(C2)CC1C3)c1ccc(-c2cn(C3CCC4(CC3)COC4)c3cc(O[C@H]4CC[C@H](N5CC(F)(F)C5)CC4)ccc23)nc1C(F)(F)F (stereo partly shown) [Compound I-582] | < 10 nM | < 10 nM |  | 
23 | CC(F)(F)CN1CCC(Oc2ccc3c(-c4ncc(C(=O)NC5(C(=O)O)C6CC7CC(C6)CC5C7)c(C(C)(F)F)n4)cn(C4CCC(F)(F)CC4)c3c2)CC1 (stereo not shown) [Compound I-583] | < 10 nM | < 10 nM |  | 
24 | COC[C@@H](C)n1cc(-c2ncc(C(=O)NC3(C(=O)O)C4CC5CC(C4)CC3C5)c(C(F)(F)F)n2)c2ccc(O[C@H]3CC[C@@H](N4CC(F)(F)C4)CC3)cc21 (stereo partly shown) [Compound I-585] | < 10 nM | < 10 nM |  | 
25 | CC(F)(F)c1nc(N2CC3(CCOCC3)c3cc(O[C@H]4CC[C@@H](N5CC(F)(F)C5)CC4)ccc32)ncc1C(=O)NC1(C(=O)O)C2CC3CC(C2)CC1C3 (stereo partly shown) [Compound I-586] | < 10 nM | < 10 nM |  | 
26 | CCC1(CC)CN(c2ncc(C(=O)NC3(C(=O)O)C4CC5CC(C4)CC3C5)c(C(C)(F)F)n2)c2ccc(OC3CCN(c4ncc(F)cn4)CC3)cc21 (stereo not shown) [Compound I-588] | < 10 nM | < 10 nM |  | 
27 | CCC1(CC)CN(c2ncc(C(=O)NC3(C(=O)O)C4CC5CC(C4)CC3C5)c(C(C)(F)F)n2)c2ccc(OC3CCN(CC(F)(F)F)CC3)cc21 (stereo not shown) [Compound I-589] | < 10 nM | < 10 nM |  | 
28 | CCC1(CC)CN(c2ncc(C(=O)NC3(C(=O)O)C4CC5CC(C4)CC3C5)c(C(C)(F)F)n2)c2ccc(O[C@H]3CC[C@H](N4CC(F)(F)C4)CC3)cc21 (stereo partly shown) [Compound I-591] |  |  | 2.2 nM | 0.61 nM
29 | CC(F)(F)c1nc(N2CC3(CCOCC3)c3cc(OC4CN(CC(F)(F)F)C4)ccc32)ncc1C(=O)NC1(C(=O)O)C2CC3CC(C2)CC1C3 (stereo not shown) [Compound I-592] | < 10 nM | < 10 nM |  | 
30 | CC(F)(F)c1nc(N2CC3(CCOCC3)c3cc(OC4CCN(C5CS(=O)(=O)C5)CC4)ccc32)ncc1C(=O)NC1(C(=O)O)C2CC3CC(C2)CC1C3 (stereo not shown) [Compound I-593] | < 10 nM | < 10 nM |  | 
31 | CC(F)(F)c1nc(N2CC3(CCOCC3)c3cc(O[C@H]4CC[C@H](N5CC(F)(F)C5)CC4)ncc32)ncc1C(=O)NC1(C(=O)O)C2CC3CC(C2)CC1C3 (stereo partly shown) [Compound I-594] |  |  | 4.2 nM | 0.38 nM
32 | O=C(NC1(C(=O)O)C2CC3CC(C2)CC1C3)c1cnc(N2CC3(CCCCC3)c3cc(O[C@H]4CC[C@H](N5CC(F)(F)C5)CC4)ncc32)nc1C(F)(F)F (stereo partly shown) [Compound I-595] | < 10 nM | < 10 nM |  | 
33 | CC(F)(F)c1nc(N2CC3(CCOCC3)c3cc(-n4ncc5c4CCN(CC(F)(F)F)C5)ccc32)ncc1C(=O)NC1(C(=O)O)C2CC3CC(C2)CC1C3 (stereo not shown) [Compound I-596] | < 10 nM | < 10 nM |  | 
34 | CC(F)(F)c1nc(N2CC3(CC3)c3cc(O[C@H]4CC[C@H](N5CC(F)(F)C5)CC4)ccc32)ncc1C(=O)NC1(C(=O)O)C2CC3CC(C2)CC1C3 (stereo partly shown) [Compound I-597] | < 10 nM | < 10 nM |  | 
35 | CC(F)(F)c1nc(N2CC3(CCCC3)c3cc(O[C@@H]4CCN(CC(F)(F)F)C4)ccc32)ncc1C(=O)NC1(C(=O)O)C2CC3CC(C2)CC1C3 (stereo partly shown) [Compound I-598] | < 10 nM | < 10 nM |  | 
36 | CC(F)(F)c1nc(N2CC3(CCOCC3)c3cc(OC4CCN(c5ncc(F)cn5)CC4)ncc32)ncc1C(=O)N[C@]1(C(=O)O)[C@@H]2CC3C[C@H]1C[C@@](F)(C3)C2 [Compound I-599] | < 10 nM | < 10 nM |  | 
37 | CC(F)(F)c1nc(N2CC3(CCCCC3)c3cc(OC4CCN(c5ncc(F)cn5)CC4)ncc32)ncc1C(=O)N[C@]1(C(=O)O)[C@@H]2CC3C[C@H]1C[C@@](F)(C3)C2 [Compound I-600] | < 10 nM | < 10 nM |  | 
38 | CC(F)(F)c1nc(N2CC3(CCOCC3)c3cc(O[C@H]4CC[C@H](N5CC(F)(F)C5)CC4)ncc32)ncc1C(=O)N[C@]1(C(=O)O)[C@@H]2CC3C[C@H]1C[C@@](F)(C3)C2 [Compound I-601] | < 10 nM | < 10 nM |  | 
39 | CC(F)(F)c1nc(N2CC3(CCOCC3)c3cc(-n4ncc5c4CCN(CC(F)(F)F)C5)ncc32)ncc1C(=O)NC1(C(=O)O)C2CC3CC(C2)CC1C3 (stereo not shown) [Compound I-602] | < 10 nM | < 10 nM |  | 
40 | CC(F)(F)c1nc(N2CC3(CC3)c3cc(OC4CCN(c5ncc(F)cn5)CC4)ccc32)ncc1C(=O)NC1(C(=O)O)C2CC3CC(C2)CC1C3 (stereo not shown) [Compound I-603] | < 10 nM | < 10 nM |  | 
41 | CC(F)(F)c1nc(N2CC3(CC3)c3cc(OC4CCN(CC(F)(F)F)CC4)ccc32)ncc1C(=O)NC1(C(=O)O)C2CC3CC(C2)CC1C3 (stereo not shown) [Compound I-604] | < 10 nM | < 10 nM |  | 
